Experimental data: paper PMC10178848, “Modulating fast skeletal muscle contraction protects skeletal muscle in animal models of Duchenne muscular dystrophy” (The Journal of Clinical Investigation, 2023)

System: psoas S1 (fast skeletal muscle myosin)
Experiment: Stopped-flow analysis of Pi release from myosin
Format: biochemical, rabbit
Parameters: dose or concentration left out as unconfirmed
Details: preincubation with myosin 30 minutes prior to actin
Description: The rate of Pi release from myosin with actin utilized a fluorescent phosphate binding protein, as described previously ([63]). Experiments were performed in 10 mM MOPS, pH 7.0; 5 mM KCL; 1 mM EGTA; 1 mM DTT; 0.5 mM MgCl2. ATP and ADP were removed by incubation with apyrase ([64]). Prior to mixing with 1 mM ATP in a stopped flow device, compound was incubated with 6 μM psoas S1 at 25°C for 30 minutes.

Structure (SMILES): Cc1ccc(S(=O)(=O)NCc2ccccc2)cc1 [BTS, N-benzyl-p-toluene sulfonamide, reference compound]
- rate of Pi release from myosin with actin: decreased the rate of Pi release
